ChEMBL document CHEMBL5370577, “Structurally Diverse Cytotoxic Polyphenols from Garcinia gracilis” (J Nat Prod, 2023)

How the values were obtained:
[1] = Cytotoxicity against human BEAS-2B cells assessed as reduction in cell viability incubated for 48 hrs by MTS assay; assay type: toxicity, cell-based
SW480 [2] = assay: Cytotoxicity against human SW480 cells assessed as reduction in cell viability incubated for 48 hrs by MTS assay; assay type: functional, cell-based; conditions: SW480, 48 h
MDA-MB-231 [3] = assay: Cytotoxicity against human MDA-MB-231 cells assessed as reduction in cell viability incubated for 48 hrs by MTS assay; assay type: functional, cell-based; conditions: MDA-MB-231, 48 h
SMMC-7721 [4] = assay: Growth inhibition in human SMMC-7721 cells assessed as reduction in cell viability at 40 uM incubated for 48 hrs by MTS assay relative to control; assay type: functional; conditions: read-out: GI
HL-60 [5] = assay: Growth inhibition in human HL-60 cells assessed as reduction in cell viability at 40 uM incubated for 48 hrs by MTS assay relative to control; assay type: functional; conditions: read-out: GI
A549 [6] = assay: Growth inhibition in human A549 cells assessed as reduction in cell viability at 40 uM incubated for 48 hrs by MTS assay relative to control; assay type: functional; conditions: read-out: GI
SW480 [7] = assay: Growth inhibition in human SW480 cells assessed as reduction in cell viability at 40 uM incubated for 48 hrs by MTS assay relative to control; assay type: functional; conditions: read-out: GI
HL-60 [8] = assay: Cytotoxicity against human HL-60 cells assessed as reduction in cell viability incubated for 48 hrs by MTS assay; assay type: functional, cell-based; conditions: HL-60, 48 h
SMMC-7721 [9] = assay: Cytotoxicity against human SMMC-7721 cells assessed as reduction in cell viability incubated for 48 hrs by MTS assay; assay type: functional, cell-based; conditions: SMMC-7721, 48 h
MDA-MB-231 [10] = assay: Growth inhibition in human MDA-MB-231 cells assessed as reduction in cell viability at 40 uM incubated for 48 hrs by MTS assay relative to control; assay type: functional; conditions: read-out: GI
A549 [11] = assay: Cytotoxicity against human A549 cells assessed as reduction in cell viability incubated for 48 hrs by MTS assay; assay type: functional, cell-based; conditions: A549, 48 h
SMMC-7721 [12] = assay: Induction of apoptosis in human SMMC-7721 cells assessed as late apoptotic cells at 5 uM incubated for 24 hrs by Annexin V-PE/7-AAD staining based flow cytometry analysis (Rvb= 0.627%); assay type: functional
SMMC-7721 [13] = assay: Induction of apoptosis in human SMMC-7721 cells assessed as viable cells at 5 uM incubated for 24 hrs by Annexin V-PE/7-AAD staining based flow cytometry analysis (Rvb= 98.6%); assay type: functional; conditions: read-out: Activity
SMMC-7721 [14] = assay: Induction of apoptosis in human SMMC-7721 cells assessed as early apoptotic cells at 5 uM incubated for 24 hrs by Annexin V-PE/7-AAD staining based flow cytometry analysis (Rvb= 0.231%); assay type: functional
SMMC-7721 [15] = assay: Induction of apoptosis in human SMMC-7721 cells assessed as necrotic cells at 5 uM incubated for 24 hrs by Annexin V-FITC/PI staining based flow cytometry analysis (Rvb= 0.572%); assay type: functional
SMMC-7721 [16] = assay: Induction of apoptosis in human SMMC-7721 cells assessed as early apoptotic cells at 10 uM incubated for 24 hrs by Annexin V-PE/7-AAD staining based flow cytometry analysis (Rvb= 0.231%); assay type: functional
SMMC-7721 [17] = assay: Induction of apoptosis in human SMMC-7721 cells assessed as viable cells at 10 uM incubated for 24 hrs by Annexin V-PE/7-AAD staining based flow cytometry analysis (Rvb= 98.6%); assay type: functional; conditions: read-out: Activity
SMMC-7721 [18] = assay: Induction of apoptosis in human SMMC-7721 cells assessed as late apoptotic cells at 20 uM incubated for 24 hrs by Annexin V-PE/7-AAD staining based flow cytometry analysis (Rvb= 0.627%); assay type: functional
SMMC-7721 [19] = assay: Induction of apoptosis in human SMMC-7721 cells assessed as necrotic cells at 10 uM incubated for 24 hrs by Annexin V-FITC/PI staining based flow cytometry analysis (Rvb= 0.572%); assay type: functional
SMMC-7721 [20] = assay: Induction of apoptosis in human SMMC-7721 cells assessed as viable cells at 20 uM incubated for 24 hrs by Annexin V-PE/7-AAD staining based flow cytometry analysis (Rvb= 98.6%); assay type: functional; conditions: read-out: Activity
SMMC-7721 [21] = assay: Induction of apoptosis in human SMMC-7721 cells assessed as late apoptotic cells at 10 uM incubated for 24 hrs by Annexin V-PE/7-AAD staining based flow cytometry analysis (Rvb= 0.627%); assay type: functional
SMMC-7721 [22] = assay: Induction of apoptosis in human SMMC-7721 cells assessed as necrotic cells at 20 uM incubated for 24 hrs by Annexin V-FITC/PI staining based flow cytometry analysis (Rvb= 0.572%); assay type: functional
SMMC-7721 [23] = assay: Induction of apoptosis in human SMMC-7721 cells assessed as early apoptotic cells at 20 uM incubated for 24 hrs by Annexin V-PE/7-AAD staining based flow cytometry analysis (Rvb= 0.231%); assay type: functional

Compound	IC50 at 48 h [1]	IC50 (SW480 [2])	IC50 (MDA-MB-231 [3])	inhibition of growth at 40 µM (SMMC-7721 [4])	inhibition of growth at 40 µM (HL-60 [5])	inhibition of growth at 40 µM (A549 [6])	inhibition of growth at 40 µM (SW480 [7])	IC50 (HL-60 [8])	IC50 (SMMC-7721 [9])	inhibition of growth at 40 µM (MDA-MB-231 [10])	IC50 (A549 [11])	further results
CC(C)(O)CCc1c(O)cc(O)c2c(=O)c3ccc(O)c(O)c3oc12	20400 nM	6100 nM	27300 nM	> 50%	> 50%	> 50%	> 50%	3900 nM	2200 nM	> 50%	7200 nM	
COc1cccc2c1C(=O)c1c(O)c3c(c(O)c1C2=O)C[C@@](O)(C(=O)CO)C[C@@H]3O[C@H]1C[C@H](N)[C@H](O)[C@H](C)O1 [DOXORUBICIN]												Activity (SMMC-7721 [12]): 96%; viability at 5 µM (SMMC-7721 [13]): 1.34%; Activity (SMMC-7721 [14]): 0.796%; Activity (SMMC-7721 [15]): 1.85%
CC1(C)C=Cc2c(cc(O)c3c(=O)c4ccc(O)c(O)c4oc23)O1	21100 nM	4000 nM	8900 nM	> 50%	> 50%	> 50%	> 50%		2200 nM	> 50%	3900 nM	
CC(C)=CC[C@@]12OC(C)(C)[C@@H]3C[C@H](C=C4C(=O)c5c(O)cc6c(c5O[C@]431)CCC(C)(C)O6)C2=O	1100 nM	1000 nM	2300 nM	> 50%	> 50%	> 50%	> 50%	1700 nM	1000 nM	> 50%	2900 nM	
CC(C)=CC[C@@]12OC(C)(C)[C@@H]3C[C@H](C=C4C(=O)c5c(O)cc(O)c(CCC(C)(C)O)c5O[C@]431)C2=O	7700 nM	3800 nM	6200 nM	> 50%	> 50%	> 50%	> 50%	4900 nM	2100 nM	> 50%	2900 nM	
CC(C)=CC[C@@]12OC(C)(C)[C@@H]3C[C@H](C=C4C(=O)c5c(O)cc(O)cc5O[C@]431)C2=O	3200 nM	3700 nM	5700 nM	> 50%	> 50%	> 50%	> 50%	6300 nM	1400 nM	> 50%	2600 nM	Activity (SMMC-7721 [16]): 12.7%; viability at 10 µM (SMMC-7721 [17]): 50%; Activity (SMMC-7721 [12]): 9.08%; viability at 5 µM (SMMC-7721 [13]): 85.4%; Activity (SMMC-7721 [14]): 3.74%; Activity (SMMC-7721 [18]): 68.7%; Activity (SMMC-7721 [19]): 8.22%; viability at 20 µM (SMMC-7721 [20]): 6.98%; Activity (SMMC-7721 [15]): 1.8%; Activity (SMMC-7721 [21]): 29.1%; Activity (SMMC-7721 [22]): 3.79%; Activity (SMMC-7721 [23]): 20.5%
CC(C)=CCc1c(O)cc(O)c2c1O[C@]13C(=C[C@H]4C[C@H]1C(C)(C)O[C@@]3(CC=C(C)C)C4=O)C2=O	700 nM	1000 nM	1300 nM	> 50%	> 50%	> 50%	> 50%	1100 nM	500 nM	> 50%	800 nM	
